Reference: patent publication US9283222B2 (priority 2006, dated 2016)

biological target: Recombinant Human Poly(ADP-Ribose) Polymerase (PARP), PARP-1 (Homo sapiens (Human), UniProt P09874); conditions: read-out: PARP-1 (Ki); Table 1; text calls the values EC50s
Sequence (P09874 whole entry): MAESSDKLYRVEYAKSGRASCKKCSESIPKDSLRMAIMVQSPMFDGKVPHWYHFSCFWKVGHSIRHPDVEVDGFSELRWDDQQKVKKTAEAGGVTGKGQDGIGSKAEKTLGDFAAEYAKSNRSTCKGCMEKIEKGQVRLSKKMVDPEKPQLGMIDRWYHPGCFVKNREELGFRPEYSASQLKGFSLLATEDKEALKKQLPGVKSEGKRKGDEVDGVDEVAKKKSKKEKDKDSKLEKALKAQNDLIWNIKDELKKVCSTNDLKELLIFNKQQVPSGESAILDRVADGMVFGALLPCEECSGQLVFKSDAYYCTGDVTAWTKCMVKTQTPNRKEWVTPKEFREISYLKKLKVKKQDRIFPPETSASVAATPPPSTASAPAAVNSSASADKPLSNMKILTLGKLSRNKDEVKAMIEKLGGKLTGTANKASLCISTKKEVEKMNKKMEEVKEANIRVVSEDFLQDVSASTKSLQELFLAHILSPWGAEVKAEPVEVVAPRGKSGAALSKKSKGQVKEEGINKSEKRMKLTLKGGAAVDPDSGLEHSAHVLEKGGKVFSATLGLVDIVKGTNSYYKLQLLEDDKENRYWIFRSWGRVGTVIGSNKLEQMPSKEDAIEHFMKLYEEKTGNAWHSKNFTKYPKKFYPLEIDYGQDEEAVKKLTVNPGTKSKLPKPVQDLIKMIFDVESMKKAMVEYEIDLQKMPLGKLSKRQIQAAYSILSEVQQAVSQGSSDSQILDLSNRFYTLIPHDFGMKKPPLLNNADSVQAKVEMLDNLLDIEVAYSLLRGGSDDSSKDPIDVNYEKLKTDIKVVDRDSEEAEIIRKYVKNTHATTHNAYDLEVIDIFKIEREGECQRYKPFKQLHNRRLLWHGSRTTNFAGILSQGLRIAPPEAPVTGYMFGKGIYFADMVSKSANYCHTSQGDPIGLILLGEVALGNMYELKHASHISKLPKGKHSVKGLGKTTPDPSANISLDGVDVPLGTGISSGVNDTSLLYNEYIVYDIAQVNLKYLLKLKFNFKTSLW

Ki	Compound
43 nM	O=c1[nH]nc(Cc2cccc(-c3cccc(CNC4CCCC4)c3)c2)c2c1CCCC2 [Example 128, 4-((3′-((cyclopentylamino)methyl)-1,1′-biphenyl-3-yl)methyl)-5,6,7,8-tetrahydrophthalazin-1(2H)-one]
2 nM	CC(C)N1CCN(C(=O)c2cc(Cc3n[nH]c(=O)c4c3CCCC4)ccc2F)CC1 [Example 531, 4-{4-fluoro-3-[(4-isopropylpiperazin-1-yl)carbonyl]benzyl}-5,6,7,8-tetrahydrophthalazin-1(2H)-one]
840 nM	CNC(=O)c1ccc(Cc2n[nH]c(=O)c3c2CCCC3)cn1 [Example 93, N-methyl-5-((4-oxo-3,4,5,6,7,8-hexahydrophthalazin-1-yl)methyl)pyridine-2-carboxamide]
1 nM	O=C(c1cc(Cc2n[nH]c(=O)c3c2NCCC3)ccc1F)N1CCN(C(=O)c2cccnc2Cl)CC1 [Example 658, 8-[3-({4-[(2-chloropyridin-3-yl)carbonyl]piperazin-1-yl}carbonyl)-4-fluorobenzyl]-2,3,4,6-tetrahydropyrido[2,3-d]pyridazin-5(1H)-one]
395 nM	Cc1noc(C)c1C(=O)Nc1cccc(Cc2n[nH]c(=O)c3c2CCCC3)c1 [Example 209, 3,5-dimethyl-N-(3-((4-oxo-3,4,5,6,7,8-hexahydrophthalazin-1-yl)methyl)phenyl)isoxazole-4-carboxamide]
191 nM	CC(C)c1ccc(NC(=O)c2cccc(Cc3n[nH]c(=O)c4c3CCCC4)c2)cc1 [Example 334, N-(4-isopropylphenyl)-3-((4-oxo-3,4,5,6,7,8-hexahydrophthalazin-1-yl)methyl)benzamide]
41 nM	Cc1ccc(C(=O)Nc2cccc(Cc3n[nH]c(=O)c4c3CCCC4)c2)c(O)c1 [Example 225, 2-hydroxy-4-methyl-N-(3-((4-oxo-3,4,5,6,7,8-hexahydrophthalazin-1-yl)methyl)phenyl)benzamide]
177 nM	Cc1cc(C(=O)Nc2cccc(Cc3n[nH]c(=O)c4c3CCCC4)c2)c(C)o1 [Example 195, 2,5-dimethyl-N-(3-((4-oxo-3,4,5,6,7,8-hexahydrophthalazin-1-yl)methyl)phenyl)-3-furamide]
2.1 nM	O=C(c1cc(Cc2n[nH]c(=O)c3c2NCCC3)ccc1F)N1CCN(c2ccccc2Cl)CC1 [Example 554, 8-(3-{[4-(2-chlorophenyl)piperazin-1-yl]carbonyl}-4-fluorobenzyl)-2,3,4,6-tetrahydropyrido[2,3-d]pyridazin-5(1H)-one]
87 nM	Cc1cc(NC(=O)c2cccc(Cc3n[nH]c(=O)c4c3CCCC4)c2)ccc1Cl [Example 343, N-(4-chloro-3-methylphenyl)-3-((4-oxo-3,4,5,6,7,8-hexahydrophthalazin-1-yl)methyl)benzamide]
223 nM	O=C(CCC(=O)c1ccc(Oc2ccccc2)cc1)Nc1cccc(CCc2n[nH]c(=O)c3c2CCCC3)c1 [Example 321, 4-oxo-N-(3-(2-(4-oxo-3,4,5,6,7,8-hexahydrophthalazin-1-yl)ethyl)phenyl)-4-(4-phenoxyphenyl)butanamide]
85 nM	C[C@H](NC(=O)Nc1cc(Cc2n[nH]c(=O)c3c2CCCC3)ccc1F)C(=O)O [Example 627, N-[({2-fluoro-5-[(4-oxo-3,4,5,6,7,8-hexahydrophthalazin-1-yl)methyl]phenyl}amino)carbonyl]alanine]
2.1 nM	O=C(c1ccc(F)cc1)C1CCN(C(=O)c2cc(Cc3n[nH]c(=O)c4c3NCCC4)ccc2F)CC1 [Example 691, 8-(4-fluoro-3-{[4-(4-fluorobenzoyl)piperidin-1-yl]carbonyl}benzyl)-2,3,4,6-tetrahydropyrido[2,3-d]pyridazin-5(1H)-one]
51 nM	O=C(NC1CCC1)c1cc(Cc2n[nH]c(=O)c3c2NCCC3)ccc1F [Example 471, N-cyclobutyl-2-fluoro-5-((5-oxo-1,2,3,4,5,6-hexahydropyrido(2,3-d)pyridazin-8-yl)methyl)benzamide]
105 nM	CCCCN(Cc1ccccc1)C(=O)c1cccc(Cc2n[nH]c(=O)c3c2CCCC3)c1 [Example 422, N-benzyl-N-butyl-3-((4-oxo-3,4,5,6,7,8-hexahydrophthalazin-1-yl)methyl)benzamide]
120 nM	Cc1ccc(NC(=O)c2cccc(Cc3n[nH]c(=O)c4c3CCCC4)c2)cc1F [Example 339, N-(3-fluoro-4-methylphenyl)-3-((4-oxo-3,4,5,6,7,8-hexahydrophthalazin-1-yl)methyl)benzamide]
68 nM	CC(C)N(Cc1ccccc1)C(=O)c1cccc(Cc2n[nH]c(=O)c3c2CCCC3)c1 [Example 421, N-benzyl-N-isopropyl-3-((4-oxo-3,4,5,6,7,8-hexahydrophthalazin-1-yl)methyl)benzamide]
25 nM	O=C(Cc1cc(F)cc(F)c1)Nc1cccc(Cc2n[nH]c(=O)c3c2CCCC3)c1 [Example 156, 2-(3,5-difluorophenyl)-N-(3-((4-oxo-3,4,5,6,7,8-hexahydrophthalazin-1-yl)methyl)phenyl)acetamide]

Ki	Compound
1.5 nM	O=C(c1cc(Cc2n[nH]c(=O)c3c2CCCC3)ccc1F)N1CCN(C(=O)c2cccnc2Cl)CC1 [Example 755, 4-[3-({4-[(2-chloropyridin-3-yl)carbonyl]piperazin-1-yl}carbonyl)-4-fluorobenzyl]-5,6,7,8-tetrahydrophthalazin-1(2H)-one]
286 nM	O=C(CCN1CCCCC1)Nc1cccc(Cc2n[nH]c(=O)c3c2CCCC3)c1 [Example 98, N-(3-((4-oxo-3,4,5,6,7,8-hexahydrophthalazin-1-yl)methyl)phenyl)-3-piperidin-1-ylpropanamide]
1.1 nM	COc1ccc(N2CCN(C(=O)c3cc(Cc4n[nH]c(=O)c5c4NCCC5)ccc3F)CC2)cc1 [Example 599, 8-(4-fluoro-3-{[4-(4-methoxyphenyl)piperazin-1-yl]carbonyl}benzyl)-2,3,4,6-tetrahydropyrido[2,3-d]pyridazin-5(1H)-one]
136 nM	Cc1ccc(NC(=O)c2cccc(Cc3n[nH]c(=O)c4c3CCCC4)c2)c(F)c1 [Example 338, N-(2-fluoro-4-methylphenyl)-3-((4-oxo-3,4,5,6,7,8-hexahydrophthalazin-1-yl)methyl)benzamide]
1230 nM	O=C1CCCN1c1ccc(Cc2n[nH]c(=O)c3c2CCCC3)cn1 [Example 104, 4-((6-(2-oxopyrrolidin-1-yl)pyridin-3-yl)methyl)-5,6,7,8-tetrahydrophthalazin-1(2H)-one]
204 nM	O=C(CCC(=O)c1ccccc1)Nc1cccc(CCc2n[nH]c(=O)c3c2CCCC3)c1 [Example 294, 4-oxo-N-(3-(2-(4-oxo-3,4,5,6,7,8-hexahydrophthalazin-1-yl)ethyl)phenyl)-4-phenylbutanamide]
41 nM	CN(C(=O)Nc1cc(Cc2n[nH]c(=O)c3c2CCCC3)ccc1F)c1ccccc1 [Example 618, N′-{2-fluoro-5-[(4-oxo-3,4,5,6,7,8-hexahydrophthalazin-1-yl)methyl]phenyl}-N-methyl-N-phenylurea]
238 nM	Cc1ccc(F)cc1C(=O)Nc1cccc(Cc2n[nH]c(=O)c3c2CCCC3)c1 [Example 179, 5-fluoro-2-methyl-N-(3-((4-oxo-3,4,5,6,7,8-hexahydrophthalazin-1-yl)methyl)phenyl)benzamide]
626 nM	O=c1[nH]nc(Cc2cccc(NS(=O)(=O)c3cccs3)c2)c2c1CCCC2 [Example 120, N-(3-((4-oxo-3,4,5,6,7,8-hexahydrophthalazin-1-yl)methyl)phenyl)thiophene-2-sulfonamide]
0.6 nM	O=C(c1cc[nH]n1)N1CCN(C(=O)c2cc(Cc3n[nH]c(=O)c4c3NCCC4)ccc2F)CC1 [Example 704, 8-(4-fluoro-3-{[4-(1H-pyrazol-3-ylcarbonyl)piperazin-1-yl]carbonyl}benzyl)-2,3,4,6-tetrahydropyrido[2,3-d]pyridazin-5(1H)-one]
250 nM	CCCc1ccc(C(=O)Nc2cccc(Cc3n[nH]c(=O)c4c3CCCC4)c2)cc1 [Example 185, N-(3-((4-oxo-3,4,5,6,7,8-hexahydrophthalazin-1-yl)methyl)phenyl)-4-propylbenzamide]
40 nM	O=C(NCCN1CCCCC1)c1cccc(Cc2n[nH]c(=O)c3c2CCCC3)c1 [Example 64, 3-((4-oxo-3,4,5,6,7,8-hexahydrophthalazin-1-yl)methyl)-N-(2-piperidin-1-ylethyl)benzamide]
1.6 nM	O=C(c1ccccc1)N1CCN(C(=O)c2cc(Cc3n[nH]c(=O)c4c3CCCC4)ccc2F)CC1 [Example 525, 4-{3-[(4-benzoylpiperazin-1-yl)carbonyl]-4-fluorobenzyl}-5,6,7,8-tetrahydrophthalazin-1(2H)-one]
2340 nM	Cc1ccc(C(=O)c2ccccc2C(=O)Nc2cccc(Cc3n[nH]c(=O)c4c3CCCC4)c2)cc1 [Example 244, 2-(4-methylbenzoyl)-N-(3-((4-oxo-3,4,5,6,7,8-hexahydrophthalazin-1-yl)methyl)phenyl)benzamide]
18 nM	CN1CCC(CNC(=O)c2cccc(Cc3n[nH]c(=O)c4c3CCCC4)c2)CC1 [Example 79, N-((1-methylpiperidin-4-yl)methyl)-3-((4-oxo-3,4,5,6,7,8-hexahydrophthalazin-1-yl)methyl)benzamide]
6 nM	O=C(CCOc1ccccc1)Nc1cccc(Cc2n[nH]c(=O)c3c2CCCC3)c1 [Example 153, N-(3-((4-oxo-3,4,5,6,7,8-hexahydrophthalazin-1-yl)methyl)phenyl)-3-phenoxypropanamide]
15 nM	O=C(NCCN1CCCCC1)c1cc(Cc2n[nH]c(=O)c3c2NCCC3)ccc1F [Example 486, 2-fluoro-5-((5-oxo-1,2,3,4,5,6-hexahydropyrido(2,3-d)pyridazin-8-yl)methyl)-N-(2-piperidin-1-ylethyl)benzamide]

Compound	Ki
CC(=O)N1CCN(C(=O)c2cccc(Cc3n[nH]c(=O)c4c3CCCC4)c2)CC1 [Example 438, 4-(3-((4-acetylpiperazin-1-yl)carbonyl)benzyl)-5,6,7,8-tetrahydrophthalazin-1(2H)-one]	3 nM

same assay, conditions: read-out: PARP-1 (Ki); Table 3; H analogs versus para-F analogs

Ki	Compound
280 nM	O=C(CCN1CCCCC1)Nc1cccc(Cc2n[nH]c(=O)c3c2CCCC3)c1 [drawing 24]
